Measurements published in US20170354600A1, “COMPOSITION AND METHOD FOR STABILIZING GSH” (priority 2016, published 2017).
Like-named read-outs stand apart in the source and are kept apart here.

How the values were obtained:
[1] = GSH retention in solid composition exposed to hydrogen peroxide oxidation (Ellman colorimetric, 405 nm); conditions: 0.1 mmol GSH, 1 ml hydrogen peroxide 1.0% w/v
Experimental: 0.1 mmol of reduced glutathione (96%) was premixed with 5 g of liquid sorbitol (96%, Roquette Corp) using magnetic stirring for 15 minutes at room temperature. Then, as described in Table 2, an amount of each food grade antioxidant were separately added for each test, followed by an additional 10 minutes of stirring. The mixture was then homogeneously dispersed in 100 g of powder sorbitol using mechanical high shear blending for 3 minutes. 1 ml of hydrogen peroxide solution 1.0% w/v was added to each test and a continue mixing for additional 1 minute. A control test with no antioxidant was also performed.
After 6 hours of exposure to oxidation, 5 g of the treated solid mixture was added to 30 ml of 0.1M disodium phosphate/0.001 mM EDTA pH 8.0 buffer solution. This solution was then extracted 3 times with chloroform using a separation funnel. The remaining aqueous phase was added to 100 ml volumetric flask and the volume was completed using 0.1M disodium phosphate/0.001 mM EDTA pH 8.5 buffer solution. The GSH present in this solution was quantify by colorimetric method at 405 nm using Elman's reagent, 5,5′-Dithio-bis-(2-nitrobenzoic acid), using L-glutathione 99%, provided by Sigma Aldrich, as standard. The retaining percentage for each solid composition was calculated and expressed as percentage values in Table 3. […]

[2] = GSH retention in liquid composition exposed to hydrogen peroxide oxidation (Ellman colorimetric, 405 nm); conditions: 0.1 mmol GSH, pH 8.0 buffer, 1 ml hydrogen peroxide 0.5% w/v
Experimental: 0.1 mmol of reduced glutathione (Kohjin Co. Ltd) was premixed with 5 g of liquid sorbitol (96%, Roquette Corp) using magnetic stirring for 10 minutes. Then, as described in Table 5, incremental concentrations of food grade antioxidants where added followed by additional 10 minutes of stirring. The mixture was then added to 100 g of 0.1M disodium phosphate/0.001 mM EDTA pH 8.0 buffer solution, then 1 ml of hydrogen peroxide solution 0.5% w/v was added to each test. A control test with no antioxidant was also performed.
After 1 hour of exposure to oxidation, 5 grams of the treated solution was added to 30 ml of 0.1M disodium phosphate/0.001 mM EDTA pH 8.5 buffer solution. This solution was then extracted 3 times with chloroform using a separation funnel. The remaining aqueous phase was added to a 100 ml volumetric flask and the volume was completed using 0.1M disodium phosphate/0.001 mM EDTA pH 8.0 buffer solution. The GSH present in this solution was quantify by colorimetric method at 405 nm using Elman's reagent, 5,5′-Dithio-bis-(2-nitrobenzoic acid), using L-glutathione 99%, provided by Sigma Aldrich, as standard. The retaining percentage for each solid composition was calculated and expressed as percentage values in Table 6. […]

[3] = GSH, cited from earlier work

SMILES: O=C1O[C@H]([C@@H](O)CO)C(O)=C1O [Ascorbic acid, L-Ascorbic acid]
- Retention percentage after 6 hours of oxidation in solid compositions ([1]; 0.001 mmol antioxidant): 0.00%
- Retention percentage after 6 hours of oxidation in solid compositions ([1]; 0.01 mmol antioxidant): 14.29%
- Retention percentage after 6 hours of oxidation in solid compositions ([1]; 10 mmol antioxidant): 28.96%
- Retention percentage after 6 hours of oxidation in solid compositions ([1]; 18.18 mmol antioxidant): 18.18%
- Retention percentage after 1 hour of oxidation in liquid composition ([2]; 0.001 mmol antioxidant): 0.00%
- Retention percentage after 1 hour of oxidation in liquid composition ([2]; 0.01 mmol antioxidant): 0.00%
- Retention percentage after 1 hour of oxidation in liquid composition ([2]; 1 mmol antioxidant): 17.92%
- Retention percentage after 1 hour of oxidation in liquid composition ([2]; 10 mmol antioxidant): 32.08%

SMILES: CCCCCCCCCCCCCCCC(=O)OC[C@H](O)[C@H]1OC(=O)C(O)=C1O [Ascorbyl palmitate]
- Retention percentage after 6 hours of oxidation in solid compositions ([1]; 0.001 mmol antioxidant): 18.18%
- Retention percentage after 6 hours of oxidation in solid compositions ([1]; 0.01 mmol antioxidant): 25.97%
- Retention percentage after 6 hours of oxidation in solid compositions ([1]; 10 mmol antioxidant): 46.10%
- Retention percentage after 6 hours of oxidation in solid compositions ([1]; 18.18 mmol antioxidant): 36.88%
- Retention percentage after 1 hour of oxidation in liquid composition ([2]; 0.001 mmol antioxidant): 0.00%
- Retention percentage after 1 hour of oxidation in liquid composition ([2]; 0.01 mmol antioxidant): 13.38%
- Retention percentage after 1 hour of oxidation in liquid composition ([2]; 1 mmol antioxidant): 18.83%
- Retention percentage after 1 hour of oxidation in liquid composition ([2]; 10 mmol antioxidant): 36.36%

SMILES: CC(=O)Oc1c(C)c(C)c2c(c1C)CC[C@@](C)(CCC[C@H](C)CCC[C@H](C)CCCC(C)C)O2 [Vitamin E, DL alpha tocopheryl acetate]
- Retention percentage after 6 hours of oxidation in solid compositions ([1]; 0.001 mmol antioxidant): 24.16%
- Retention percentage after 6 hours of oxidation in solid compositions ([1]; 0.01 mmol antioxidant): 31.04%
- Retention percentage after 6 hours of oxidation in solid compositions ([1]; 10 mmol antioxidant): 45.19%
- Retention percentage after 6 hours of oxidation in solid compositions ([1]; 18.18 mmol antioxidant): 39.61%
- Retention percentage after 1 hour of oxidation in liquid composition ([2]; 0.001 mmol antioxidant): 10.39%
- Retention percentage after 1 hour of oxidation in liquid composition ([2]; 0.01 mmol antioxidant): 16.88%
- Retention percentage after 1 hour of oxidation in liquid composition ([2]; 1 mmol antioxidant): 30.39%
- Retention percentage after 1 hour of oxidation in liquid composition ([2]; 10 mmol antioxidant): 41.69%

SMILES: CC(=O)OC/C=C(C)/C=C/C=C(C)/C=C/C1=C(C)CCCC1(C)C [Vitamin A, Vitamin A acetate]
- Retention percentage after 6 hours of oxidation in solid compositions ([1]; 0.001 mmol antioxidant): 28.57%
- Retention percentage after 6 hours of oxidation in solid compositions ([1]; 0.01 mmol antioxidant): 33.77%
- Retention percentage after 6 hours of oxidation in solid compositions ([1]; 10 mmol antioxidant): 51.04%
- Retention percentage after 6 hours of oxidation in solid compositions ([1]; 18.18 mmol antioxidant): 46.36%
- Retention percentage after 1 hour of oxidation in liquid composition ([2]; 0.001 mmol antioxidant): 14.29%
- Retention percentage after 1 hour of oxidation in liquid composition ([2]; 0.01 mmol antioxidant): 21.95%
- Retention percentage after 1 hour of oxidation in liquid composition ([2]; 1 mmol antioxidant): 33.25%
- Retention percentage after 1 hour of oxidation in liquid composition ([2]; 10 mmol antioxidant): 49.79%

SMILES: N[C@@H](CCC(=O)N[C@@H](CS)C(=O)NCC(=O)O)C(=O)O [GSH, Reduced glutathione]
- Half life ([3]; pH 6.5, 20° C., 0.1M K2HPO4/KH2PO4 Buffer): 16 min
- Half life ([3]; pH 7.5, 20° C., 0.1M K2HPO4/KH2PO4 Buffer): 9 min
- Half life ([3]; pH 8.5, 0° C., 0.1M K2HPO4/KH2PO4 Buffer): 8 min
- Half life ([3]; pH 8.5, 20° C., 0.1M K2HPO4/KH2PO4 Buffer + 0.1 nM Cu + 2): 1.2 min
- Half life ([3]; pH 8.5, 20° C., 0.1M K2HPO4/KH2PO4 Buffer + 1.0 nM EDTA): 70 min
- Half life ([3]; pH 8.5, 20° C., 0.1M K2HPO4/KH2PO4 Buffer): 1.3 min
- Half life ([3]; pH 8.5, 40° C., 0.1M K2HPO4/KH2PO4 Buffer): 0.2 min
